For 25 molecules, IC50 results are on record in patent US6924302B2, “Substituted triazole diamine derivatives as kinase inhibitors” (Ortho McNeil Pharmaceutical, Inc., priority 2000, dated 2005).

SMILES strings stand for the structures. Like-named read-outs stand apart in the source and are kept apart here.

By IC50 is commonly meant the concentration at which inhibition is half-maximal.

For assay [1], the system named is SK-OV-3 ovarian adenocarcinoma. Briefly: Inhibition of Cell Proliferation (14C-thymidine incorporation), SK-OV-3. It is filed as cell-based. Particulars: Homo sapiens, SK-OV-3 cell line. The procedure:
(§1) The ability of a test compound to inhibit the proliferation of cell growth was determined by measuring incorporation of ^14C-labelled thymidine into newly synthesized DNA within the cells. […] Cells were trypsinized and counted and 3000-8000 cells were added to each well of a 96-well CytoStar tissue culture treated scintillating microplate (Amersham #RPNQ0160) in complete medium in a volume of 100 μl. Cells were incubated for 24 hours in complete medium at 37° C. in an atmosphere containing 5% CO2. Next, 1 μl of test compound in 100% DMSO was added to the wells of the plate. DMSO only was added to control wells. Cells were incubated for 24 more hours in complete medium at 37° C. in an atmosphere containing 5% CO2. […] The plate was incubated for 24 hours at 37° C. plus 5% CO2 in drug plus ^14C-thymidine. The contents of the plate were discarded into a ^14C radioactive waste container by inverting the plate and the plate was washed twice with 200 μl PBS. 200 μl of PBS is added to each well. […] The degree of methyl ^14C-thymidine incorporation was quantified on a Packard Top Count.

The subject of assay [2] is MDA-MB-231. Description: Inhibition of Cell Proliferation (14C-thymidine incorporation), MDA-MB-231. The assay is classed as cell-based. Conditions: Homo sapiens, MDA-MB-231 cell line. The procedure: as §1
Assay [3] deals with T1, HER2 (human epidermal growth factor receptor-2) (Homo sapiens, UniProt P04626).
T1 construct: begins at amino acid 676 followed by the remainder of the HER2 cytoplasmic domain; polyhistidine (N)
Description: Kinase Selectivity Assay HER2. The assay is classed as biochemical. Summed up:
(§2)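 Reactions ran one hour at 30° C in 1% DMSO with enzyme diluted in 50 mM Tris-HCl pH 8.0, 0.1% BSA. Scintillation counting read ^33P incorporated into immobilized biotinylated peptide.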

The target in assay [4] is FGF-R2 (Homo sapiens, UniProt P21802). Briefly: Kinase Selectivity Assay FGF-R2. The assay is classed as biochemical. Particulars: Tables 2a-2k. The protocol:
Assays to test compound inhibition of other kinases were preformed using methods that measure the amount of phosphorylation of a biotinylated peptide substrate. Biotinylated peptide substrates were selected from the literature as appropriate for the enzyme being evaluated. […] Assay conditions vary slightly for each protein kinase, for example, insulin receptor kinase requires 10 mM MnCl2 for activity and Calmodulin-dependent protein kinase requires calmodulin and 10 mM CaCl2. These assay conditions are known in the art. The reaction mixture was dispensed into the wells of a streptavidin coated Flashplate and 1 μl drug stock in 100% DMSO was added to a 100 μl reaction volume resulting in a final concentration of 1% DMSO on the reaction. Enzyme was diluted in 50 mM Tris-HCl pH=8.0, 0.1% BSA and add to each well. The reaction was incubated for one hour at 30° C. in the presence of compound. After one hour the reaction mix was aspirated from the plate and the plate was washed with PBS containing 100 mM EDTA. The plate was read on a scintillation counter to determine ^33P-γ-ATP incorporated into the immobilized peptide. Test compounds were assayed in duplicate at 8 concentrations [100 uM, 10 uM, 1 uM, 100 nM, 10 nM, 1 nM, 100 pM, 10 pM]. A maximum and minimum signal for the assay was determined on each plate. The IC50 was calculated from the dose response curve of the percent inhibition of the maximum signal in the assay according to the formula [max signal—background/test compound signal—background (100)=% inhibition] by graphing the percent inhibition against the log concentration of test compound. Known inhibitor compounds appropriate for the kinase being assayed were also included on each plate.

The target in assay [5] is T2, CDK2 in complex with cyclin A (Homo sapiens, UniProt P24941).
T2 construct: purchased Upstate Biotech
Description: Kinase Selectivity Assay CDK2. The assay is classed as biochemical. Particulars: Table 1. Summed up:
as §2

Where [6] appears, read: Kinase Selectivity, Tables 2a-2k, read-out: HER2 Kinase IC50.

Sequence of FGF-R2 (P21802 22-821, species assumed): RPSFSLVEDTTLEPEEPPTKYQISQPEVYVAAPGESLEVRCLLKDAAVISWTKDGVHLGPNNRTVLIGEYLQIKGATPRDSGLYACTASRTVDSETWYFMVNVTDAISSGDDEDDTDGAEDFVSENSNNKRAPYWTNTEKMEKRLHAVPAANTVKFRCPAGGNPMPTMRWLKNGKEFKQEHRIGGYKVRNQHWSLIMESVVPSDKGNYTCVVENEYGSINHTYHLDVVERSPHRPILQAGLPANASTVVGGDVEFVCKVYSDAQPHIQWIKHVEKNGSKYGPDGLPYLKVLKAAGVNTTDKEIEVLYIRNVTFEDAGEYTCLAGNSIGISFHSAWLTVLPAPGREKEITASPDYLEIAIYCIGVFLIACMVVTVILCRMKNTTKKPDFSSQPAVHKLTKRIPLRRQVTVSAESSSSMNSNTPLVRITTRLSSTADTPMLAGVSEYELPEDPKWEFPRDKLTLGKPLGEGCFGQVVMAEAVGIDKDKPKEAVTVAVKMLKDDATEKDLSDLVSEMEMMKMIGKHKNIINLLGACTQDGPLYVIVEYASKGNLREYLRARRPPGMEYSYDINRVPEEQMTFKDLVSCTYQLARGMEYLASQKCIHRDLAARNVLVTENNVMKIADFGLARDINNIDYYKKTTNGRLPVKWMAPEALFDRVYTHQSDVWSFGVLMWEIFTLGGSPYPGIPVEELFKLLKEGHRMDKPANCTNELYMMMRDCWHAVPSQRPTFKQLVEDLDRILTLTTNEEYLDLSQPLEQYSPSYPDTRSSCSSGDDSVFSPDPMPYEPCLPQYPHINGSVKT
T1 sequence (P04626 676-1255 limits assumed): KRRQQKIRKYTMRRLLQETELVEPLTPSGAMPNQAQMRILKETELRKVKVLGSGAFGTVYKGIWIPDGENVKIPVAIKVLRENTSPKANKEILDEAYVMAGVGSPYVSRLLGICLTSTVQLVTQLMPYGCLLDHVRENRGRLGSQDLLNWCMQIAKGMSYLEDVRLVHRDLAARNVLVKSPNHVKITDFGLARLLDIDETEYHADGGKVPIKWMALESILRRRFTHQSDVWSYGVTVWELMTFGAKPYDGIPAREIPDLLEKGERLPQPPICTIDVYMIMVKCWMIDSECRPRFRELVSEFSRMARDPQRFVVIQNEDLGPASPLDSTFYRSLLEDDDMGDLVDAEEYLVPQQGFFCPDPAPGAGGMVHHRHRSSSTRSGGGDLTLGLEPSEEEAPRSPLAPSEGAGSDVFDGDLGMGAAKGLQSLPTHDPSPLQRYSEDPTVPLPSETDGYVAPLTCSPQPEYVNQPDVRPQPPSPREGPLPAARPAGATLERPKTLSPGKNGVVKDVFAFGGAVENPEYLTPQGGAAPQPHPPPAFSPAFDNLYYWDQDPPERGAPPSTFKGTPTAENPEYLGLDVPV

In assay [1], `Nc1nc(Nc2ccc(S(N)(=O)=O)cc2)nn1C(=O)c1sccc1F` [Cpd 16, 4-[[5-amino-1-[(3-fluoro-2-thienyl)carbonyl]-1H-1,2,4-triazol-3-yl]amino]-benzenesulfonamide] yielded an IC50 of 2110 nM.

Molecule `Nc1nc(Nc2ccc(S(N)(=O)=O)cc2)nn1C(=O)c1sccc1Cl` [Cpd 17, 4-[[5-amino-1-[(3-chloro-2-thienyl)carbonyl]-1H-1,2,4-triazol-3-yl]amino]-benzenesulfonamide] had an IC50 in assay [1] of 3900 nM.

Molecule `Nc1nc(Nc2ccc(S(N)(=O)=O)cc2)nn1C(=O)c1ccsc1` [Cpd 30, 4-[[5-amino-1-(3-thienylcarbonyl)-1H-1,2,4-triazol-3-yl]amino]-benzenesulfonamide] returned a half-inhibitory concentration (IC50) in assay [1] of 5750 nM.

In the case of `Cc1nc(C)c(C(=O)n2nc(Nc3ccc(S(N)(=O)=O)cc3)nc2N)s1` [Cpd 34, 4-[[5-amino-1-[(2,4-dimethyl-5-thiazolyl)carbonyl]-1H-1,2,4-triazol-3-yl]amino]-benzenesulfonamide], the IC50 in assay [2] was 898 nM.

In the case of `Nc1nc(Nc2ccc(S(N)(=O)=O)cc2)nn1C(=O)c1sccc1Br` [Cpd 35, 4-[[5-amino-1-[(3-bromo-2-thienyl)carbonyl]-1H-1,2,4-triazol-3-yl]amino]-benzenesulfonamide], the IC50 in assay [2] turned out to be 1140 nM.

For the molecule `Nc1nc(Nc2ccc(S(N)(=O)=O)cc2)nn1C(=O)C1CCCC1` [Cpd 38, 4-[[5-amino-1-(cyclopentylcarbonyl)-1H-1,2,4-triazol-3-yl]amino]-benzenesulfonamide], the IC50 in assay [2] was 6760 nM.

As to `CC(C)(C)c1ccc(C(=O)n2nc(Nc3ccc(S(N)(=O)=O)cc3)nc2N)s1` [Cpd 51, 4-[[5-amino-1-[[5-(1,1-dimethylethyl)-2-thienyl]carbonyl]-1H-1,2,4-triazol-3-yl]amino]-benzenesulfonamide], the half-maximal inhibitory concentration (IC50) in assay [3] (setting [6]) is 31 nM; in assay [3] (Table 1, read-out: HER2 IC50), 31 nM.

Consider `Cc1ccccc1C(=O)n1nc(Nc2ccc(S(N)(=O)=O)cc2)nc1N` [Cpd 57, 4-[[5-amino-1-(2-methylbenzoyl)-1H-1,2,4-triazol-3-yl]amino]-benzenesulfonamide], for which the concentration for half-maximal inhibition (IC50) is 1320 nM in assay [3] (setting [6]) and 1320 nM in assay [3] (Table 1, read-out: HER2 IC50).

On to `CC(O)c1ccc(F)c(C(=O)n2nc(Nc3ccc(S(N)(=O)=O)cc3)nc2N)c1F` (centres unmarked) [Cpd 58, 4-[[5-amino-1-[2,6-difluoro-3-(1-hydroxyethyl)benzoyl]-1H-1,2,4-triazol-3-yl]amino]-benzenesulfonamide], for which the IC50 in assay [3] (setting [6]) amounted to 654 nM; in assay [3] (Table 1, read-out: HER2 IC50), 650 nM; in assay [4] it was 96 nM.

As to `Cc1ccc(F)c(C(=O)n2nc(Nc3ccc(S(N)(=O)=O)cc3)nc2N)c1Cl` [Cpd 69, 4-[[5-amino-1-(2-chloro-6-fluoro-3-methylbenzoyl)-1H-1,2,4-triazol-3-yl]amino]-benzenesulfonamide], the IC50 in assay [4] turned out to be 365 nM.

Regarding `Nc1nc(Nc2ccc(S(N)(=O)=O)cc2)nn1C(=O)c1c(F)cccc1Cl` [Cpd 70, 4-[[5-amino-1-(2-chloro-6-fluorobenzoyl)-1H-1,2,4-triazol-3-yl]amino]-benzenesulfonamide], the IC50 in assay [3] (setting [6]) is 1230 nM; in assay [3] (Table 1, read-out: HER2 IC50), 1230 nM; in assay [4] it was 273 nM.

Turning to `CN1CCN(c2ccc(Nc3nc(N)n(C(=O)c4c(F)cccc4F)n3)cc2)CC1` [Cpd 71, 1-(2,6-difluorobenzoyl)-N^3-[4-(4-methyl-1-piperazinyl)phenyl]-1H-1,2,4-triazole-3,5-diamine], the IC50 in assay [3] (setting [6]) is 1300 nM; in assay [3] (Table 1, read-out: HER2 IC50) it was 1300 nM; in assay [4], 441 nM.

For the molecule `CNS(=O)(=O)c1ccc(Nc2nc(N)n(C(=O)c3c(F)cccc3F)n2)cc1` [Cpd 80, 4-[[5-amino-1-(2,6-difluorobenzoyl)-1H-1,2,4-triazol-3-yl]amino]-N-methyl-benzenesulfonamide], the IC50 in assay [3] (Table 1, read-out: HER2 IC50) worked out at 1120 nM; in assay [1] it was 16300 nM.

As for `CNS(=O)(=O)c1ccc(Nc2nc(N)n(C(=O)c3c(F)ccc(C)c3F)n2)cc1` [Cpd 81, 4-[[5-amino-1-(2,6-difluoro-3-methylbenzoyl)-1H-1,2,4-triazol-3-yl]amino]-N-methyl-benzenesulfonamide], the values for the IC50 in assay [5], in assay [1] and in assay [4] were 1 nM, 348 nM and 268 nM, respectively.

`CNS(=O)(=O)c1ccc(Nc2nc(N)n(C(=O)c3sccc3C)n2)cc1` [Cpd 82, 4-[[5-amino-1-[(3-methyl-2-thienyl)carbonyl]-1H-1,2,4-triazol-3-yl]amino]-N-methyl-benzenesulfonamide]: the 50% inhibitory concentration (IC50) amounted to 921 nM in assay [1] and 89 nM in assay [4].

Regarding `CCc1ccc(C(=O)n2nc(Nc3ccc(S(=O)(=O)NC)cc3)nc2N)s1` [Cpd 84, 4-[[5-amino-1-[(5-ethyl-2-thienyl)carbonyl]-1H-1,2,4-triazol-3-yl]amino]-N-methyl-benzenesulfonamide], the IC50 in assay [1] came out at 461 nM; in assay [4], 300 nM.

As for `CCc1ccc(C(=O)n2nc(Nc3ccc(S(=O)(=O)NCCN(C)C)cc3)nc2N)s1` [Cpd 103, 4-[[5-amino-1-[(5-ethyl-2-thienyl)carbonyl]-1H-1,2,4-triazol-3-yl]amino]-N-[2-(dimethylamino)ethyl]-benzenesulfonamide], the half-maximal inhibitory concentration (IC50) came to 1 nM in assay [5]; 228 nM in assay [3] (setting [6]); 228 nM in assay [3] (Table 1, read-out: HER2 IC50); 170 nM in assay [4].

Take `Cc1ccsc1C(=O)n1nc(Nc2ccc(S(=O)(=O)NCCN(C)C)cc2)nc1N` [Cpd 104, 4-[[5-amino-1-[(3-methyl-2-thienyl)carbonyl]-1H-1,2,4-triazol-3-yl]amino]-N-[2-(dimethylamino)ethyl]-benzenesulfonamide]: the values for the IC50 in assay [5] and in assay [4] were 1 nM and 200 nM, respectively.

For `Cc1cc(C)c(C(=O)n2nc(Nc3ccc(NS(C)(=O)=O)cc3)nc2N)s1` [Cpd 108, N-[4-[[5-amino-1-[(3,5-dimethyl-2-thienyl)carbonyl]-1H-1,2,4-triazol-3-5 yl]amino]phenyl]-methanesulfonamide], the IC50 in assay [5] turned out to be 12 nM; in assay [3] (setting [6]), 42 nM; in assay [3] (Table 1, read-out: HER2 IC50), 41.7 nM; in assay [4], 307 nM.

For `Cc1ccsc1C(=O)n1nc(Nc2ccc(N3CCNC3=O)cc2)nc1N` [Cpd 113, 1-[4-[[5-amino-1-[(3-methyl-2-thienyl)carbonyl]-1H-1,2,4-triazol-3-yl]amino]phenyl]-2-imidazolidinone], the IC50 in assay [3] (setting [6]) came to 68 nM; in assay [3] (Table 1, read-out: HER2 IC50), 68 nM; in assay [1] it was 281 nM.

For `Cc1ccsc1C(=O)n1nc(Nc2ccc(N3CCCS3(=O)=O)cc2)nc1N` [Cpd 116, N^3-[4-(1,1-dioxido-2-isothiazolidinyl)phenyl]-1-[(3-methyl-2-thienyl)carbonyl]-1H-1,2,4-triazole-3,5-diamine], the IC50 in assay [5] was determined as 1 nM; in assay [3] (setting [6]) it was 131 nM; in assay [3] (Table 1, read-out: HER2 IC50), 131 nM.

`Nc1nc(Nc2ccc(N3CCCS3(=O)=O)cc2)nn1C(=O)c1c(F)cccc1F` [Cpd 117] yielded an IC50 in assay [5] of 7 nM.

For the molecule `Nc1nc(Nc2ccc(S(=O)(=O)Nc3ccccn3)cc2)nn1C(=O)c1c(F)cccc1F` [Cpd 118, 4-[[5-amino-1-(2,6-difluorobenzoyl)-1H-1,2,4-triazol-3-yl]amino]-N-(2-pyridinyl)-benzenesulfonamide], the concentration for half-maximal inhibition (IC50) in assay [5] is 21 nM; in assay [3] (setting [6]), over 10000 nM; in assay [3] (Table 1, read-out: HER2 IC50), over 10000 nM.

As for `Cc1cc(C)c(C(=O)n2nc(Nc3ccc(S(=O)(=O)Nc4ccccn4)cc3)nc2N)s1` [Cpd 120], the half-maximal inhibitory concentration (IC50) in assay [5] was determined as 9 nM.

On to `Cc1ccc(F)c(C(=O)n2nc(N)nc2Nc2ccc(S(N)(=O)=O)cc2)c1F` [Cpd 123, 4-[[3-amino-1-(2,6-difluoro-3-methylbenzoyl)-1H-1,2,4-triazol-5-yl]amino]-benzenesulfonamide], for which the concentration for half-maximal inhibition (IC50) in assay [5] is 31 nM; in assay [3] (setting [6]) it was over 100000 nM; in assay [3] (Table 1, read-out: HER2 IC50), about 100000 nM.
